Results as given in patent publication US20260285850A1, “SUBSTITUTED OXAZOLIDINONES AND IMIDAZOLINONES AS HERBICIDES” (FMC CORPORATION, priority 2023, published 2026).

Columns and labels:
Assay type in all cases: in vivo
[1] = system: ducksalad (Heteranthera limosa); assay: Test B flooded paddy test, visual plant response rating 0-100; details: 250 g ai/ha, Flood, applied to paddy water, evaluated after 13 days
Summary of the method: (§1)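 Greenhouse, 13 d. Seedlings at 2-leaf stage, pots flooded to 3 cm, compound delivered into floodwater, water level held constant. Evaluated visually relative to controls.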

rice (Oryza sativa) = assay: as above; details: 250 g ai/ha, Flood, applied to paddy water, evaluated after 13 days
Summary of the method: as §1

[2] = system: sedge, umbrella (small-flower umbrella sedge, Cyperus difformis); assay: as above; details: 250 g ai/ha, Flood, applied to paddy water, evaluated after 13 days
Summary of the method: as §1

[3] = system: barnyardgrass (Echinochloa crusgalli); assay: as above; details: 250 g ai/ha, Flood, applied to paddy water, evaluated after 13 days
Summary of the method: as §1

soybean (Glycine max) [4] = assay: Test A postemergence application, visual injury rating 0-100
Summary of the method: (§2)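 Plants were grown in a loam soil-sand blend and treated with test chemical in a non-phytotoxic solvent mixture containing surfactant, either sprayed on soil preemergence or applied postemergence to 2-10 cm plants. After 10 days in a greenhouse, injury was scored visually against untreated controls, 0 meaning no effect and 100 complete control.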

[5] = system: horseweed (Erigeron canadensis); assay: as above
Summary of the method: as §2

corn (Zea mays) [6] = assay: as above
Summary of the method: as §2

[7] = system: galium (catchweed bedstraw, Galium aparine); assay: as above
Summary of the method: as §2

[8] = system: ryegrass, Italian (italian ryegrass, Lolium multiflorum); assay: as above
Summary of the method: as §2

[9] = system: oat, wild (wild oat, Avena fatua); assay: as above
Summary of the method: as §2

[10] = system: ragweed (common ragweed, Ambrosia artemisiifolia); assay: as above
Summary of the method: as §2

[11] = system: palmer (palmer amaranth, palmer pigweed, Amaranthus palmeri); assay: as above
Summary of the method: as §2

[12] = system: green foxtail (Setaria viridis); assay: as above
Summary of the method: as §2

kochia (Bassia scoparia) [13] = assay: as above
Summary of the method: as §2

[14] = system: wheat (Triticum aestivum); assay: as above
Summary of the method: as §2

[15] = system: barnyardgrass (Echinochloa crus-galli); assay: as above
Summary of the method: as §2

[16] = system: blackgrass (Alopecurus myosuroides); assay: as above
Summary of the method: as §2

soybean (Glycine max) [17] = assay: Test A preemergence soil spray, visual injury rating 0-100; details: 10 days
Summary of the method: as §2

corn (Zea mays) [18] = assay: as above; details: 10 days
Summary of the method: as §2

[19] = system: ryegrass, Italian (italian ryegrass, Lolium multiflorum); assay: as above; details: 10 days
Summary of the method: as §2

[20] = system: oat, wild (wild oat, Avena fatua); assay: as above; details: 10 days
Summary of the method: as §2

[21] = system: ragweed (common ragweed, Ambrosia artemisiifolia); assay: as above; details: 10 days
Summary of the method: as §2

[22] = system: palmer (palmer amaranth, palmer pigweed, Amaranthus palmeri); assay: as above; details: 10 days
Summary of the method: as §2

[23] = system: green foxtail (Setaria viridis); assay: as above; details: 10 days
Summary of the method: as §2

kochia (Bassia scoparia) [24] = assay: as above; details: 10 days
Summary of the method: as §2

[25] = system: wheat (Triticum aestivum); assay: as above; details: 10 days
Summary of the method: as §2

[26] = system: barnyardgrass (Echinochloa crus-galli); assay: as above; details: 10 days
Summary of the method: as §2

[27] = system: blackgrass (Alopecurus myosuroides); assay: as above; details: 10 days
Summary of the method: as §2

[28] = 62 g ai/ha, postemergence, 10 days, 0 = no effect, 100 = complete control
[29] = Postemergence, 16 g ai/ha, greenhouse 10 days, 0 no effect, 100 complete control
[30] = 62 g ai/ha, 0 = no effect, 100 = complete control

CC(C)OC(=O)C1=CCC(NC(=O)C2(C)CN(c3cc(F)cc(F)c3)C(=O)O2)C1 (stereo not shown) [Compound 99]
50: Oat, Wild plant response rating (0-100) [20, 30]
0: Plant response rating, Ducksalad (0 to 100 scale, 0 is no effect and 100 is complete control) [1] | Plant response rating, Rice (0 to 100 scale, 0 is no effect and 100 is complete control) (rice (Oryza sativa)) | Plant response rating, Sedge, Umbrella (0 to 100 scale, 0 is no effect and 100 is complete control) [2] | Plant response rating, Barnyardgrass (0 to 100 scale, 0 is no effect and 100 is complete control) [3] | Soybean plant response rating (0 to 100 scale) (soybean (Glycine max) [4]; [29]) | Horseweed plant response rating (0-100) [5, 28] | Horseweed plant response rating (0 to 100 scale) [5, 29] | Corn plant response rating (0-100) (corn (Zea mays) [6]; [28]) | Corn plant response rating (0 to 100 scale) (corn (Zea mays) [6]; [29]) | Ryegrass, Italian plant response rating (0-100) [8, 28] | Ryegrass, Italian plant response rating (0 to 100 scale) [8, 29] | Oat, Wild plant response rating (0-100) [9, 28] | Oat, Wild plant response rating (0 to 100 scale) [9, 29] | Ragweed plant response rating (0-100) [10, 28] | Ragweed plant response rating (0 to 100 scale) [10, 29] | Pigweed, Palmer plant response rating (0-100) [11, 28] | Pigweed, Palmer plant response rating (0 to 100 scale) [11, 29] | Foxtail, Green plant response rating (0-100) [12, 28] | Foxtail, Green plant response rating (0 to 100 scale) [12, 29] | Kochia plant response rating (0-100) (kochia (Bassia scoparia) [13]; [28]) | Kochia plant response rating (0 to 100 scale) (kochia (Bassia scoparia) [13]; [29]) | Wheat plant response rating (0 to 100 scale) [14, 29] | Barnyardgrass plant response rating (0-100) [15, 28] | Barnyardgrass plant response rating (0 to 100 scale) [15, 29] | Blackgrass plant response rating (0-100) [16, 28] | Blackgrass plant response rating (0 to 100 scale) [16, 29] | Soybean plant response rating (soybean (Glycine max) [17]; 16 g ai/ha, 0 to 100 scale) | Soybean plant response rating (0-100) (soybean (Glycine max) [17]; [30]) | Corn plant response rating (corn (Zea mays) [18]; 16 g ai/ha, 0 to 100 scale) | Corn plant response rating (0-100) (corn (Zea mays) [18]; [30]) | Ryegrass, Italian plant response rating ([19]; 16 g ai/ha, 0 to 100 scale) | Ryegrass, Italian plant response rating (0-100) [19, 30] | Ragweed plant response rating ([21]; 16 g ai/ha, 0 to 100 scale) | Ragweed plant response rating (0-100) [21, 30] | Pigweed, Palmer plant response rating ([22]; 16 g ai/ha, 0 to 100 scale) | Pigweed, Palmer plant response rating (0-100) [22, 30] | Foxtail, Green plant response rating ([23]; 16 g ai/ha, 0 to 100 scale) | Kochia plant response rating (kochia (Bassia scoparia) [24]; 16 g ai/ha, 0 to 100 scale) | Kochia plant response rating (0-100) (kochia (Bassia scoparia) [24]; [30]) | Wheat plant response rating ([25]; 16 g ai/ha, 0 to 100 scale) | Wheat plant response rating (0-100) [25, 30] | Barnyardgrass plant response rating ([26]; 16 g ai/ha, 0 to 100 scale) | Barnyardgrass plant response rating (0-100) [26, 30] | Blackgrass plant response rating ([27]; 16 g ai/ha, 0 to 100 scale) | Blackgrass plant response rating (0-100) [27, 30]
20: Soybean plant response rating (0-100) (soybean (Glycine max) [4]; [28]) | Galium plant response rating (0-100) [7, 28] | Galium plant response rating (0 to 100 scale) [7, 29] | Oat, Wild plant response rating ([20]; 16 g ai/ha, 0 to 100 scale)
10: Wheat plant response rating (0-100) [14, 28]
40: Foxtail, Green plant response rating (0-100) [23, 30]
